Data on seven molecules can be found in patent US9693974B2, “Antibacterial and antifungal biphenylyl compounds” (CHRISTIAN-ALBRECHTS-UNIVERSITY OF KIEL, priority 2010, dated 2017).

In brackets after ≈: the same amount, converted by molar mass. Where a name gives a salt, the structure may show the parent alone. Read-outs that look alike come from different tables or passages of the source. Bounds are passed on as bounds.

Test in all cases: MIC, Bouillon-microdilution method (CLSI M07-A8)
Format in all cases: cell-based
Background: Broth dilution looks for growth in wells or tubes with falling amounts of substance.

Test [1] relates to Staphylococcus aureus ATCC 6538. The note with it: for MIC: Staphylococcus aureus. The procedure:
(§1) The respective determination is valid if in the growth control (DMSO and medium) a distinct turbidity is observed.
(§2) The minimum inhibitory concentrations of the substances of the present inventions against various infectious germs, i.a. against methicillin-resistant Staphylococcus aureus were determined with the Bouillon-microdilution method in accordance with the procedure M07-A8 of the Clinical and Laboratory Standards Institute (Pennsylvania, USA).
(§3) (Source: German Collection of Microorganisms and Cell Cultures, Braunschweig) Enterococcus hirae ATCC 10541, Staphylococcus epidermidis ATCC 12228, Staphylococcus aureus ATCC 6538, methicillin-resistant Staphylococcus aureus ATCC 33592, Bacillus cereus ATCC 11778, Candida albicans ATCC 10231, Aspergillus niger ATCC 16404, Aspergillus fumigatus ATCC 9197.
(§4) In sterile tubes with titled agar, bacteria with casein peptone soy flour peptone agar (Merck, Art. No. 1.05458.05), incubation 18-24 h at 34° C., fungi with Sabouraud 4% Glucose Agar (Merck 1.05438.05), incubation Candida albicans 18-24 h at 34° C., mold fungous 7 days at 22° C.
(§5) Suspensions are produced on titled agar by floating with 0.9% sterile NaCl solution. The turbidity is adjusted photometrically by dilution according to the turbidity of the Mc Farland-standard 0.5.
(§6) Subsequently, the bacterial suspensions are diluted in the ratio of 1:10, the Pi-suspension of the fungi remains undiluted.
(§7) The number of the germs in the inocula is adjusted so that there are approximately 5×10^5 colony forming units per milliliter after inoculation of the test wells.
(§8) The amount of a substance to be tested in a trial is weighed out on a microbalance with an Eppendorf reaction vessel and dissolved in an appropriate volume of dimethyl sulfoxide so that the concentration of the resulting solution corresponds to the 21 times highest final test concentration. The stock solution is subsequently diluted in a serial in a ratio respectively 1 ad 2 with DMSO resulting in seven different concentrations in the wells of a predilution plate. In the eighth well only DMSO is pipetted.
(§9) In each of the 96 wells of a test plate 95 μl sterile Mueller Hinton II medium (Cation adjusted, BBL™ Ref. 212322) for bacteria and sterile Sabouraud 2% glucose medium (DIFCO™ Ref 238230) for fungis are added with an eight-channel pipette (Socorex 50-200 μL). 5 μL of the solution to be tested are pipetted in each of the test wells of the plate (8-channel pipette, Eppendorf-Research, 5-10 μL). They are transferred in this way from the pre-dilutions that in the horizontal row A the highest concentration and respectively a half reduced concentration of the substance to be tested until row G and in row H only DMSO is pipetted. Subsequently, 5 μL of the inocula are pipetted in the test wells using an eight-channel pipette. In one test at least two, maximum four rows are inoculated with the same substance and the same germs. The concentrations of the test substance are each 128 μg/mL to 2 μg/mL.
(§10) The prepared plates are converted to a microtiter plate reader (Anthos ht111) which is connected to a printer. In this device, the plates are shaken for 60 seconds with high frequency before each measurement and the absorption of the probes is measured at the wavelength of light of 590 nm.
(§11) After determination of the initial values the plates are incubated at 34° C. for 16 to 20 h for bacteria and Candida albicans, and 68 to 72 h at 34° C. for mould fungis.
(§12) Following this the micro titer plates are measured again as described above.
(§13) The minimum inhibitory concentration is the lowest concentration of the tested substance which is able to inhibit the complete growth of the particular test organism, i.e. where after incubation no turbidity is measurable. The particular determination is valid when in the growth control (DMSO and medium) a distinct turbidity is observed.

Test [2] relates to methicillin-resistant Staphylococcus aureus ATCC 33592. The note with it: for MIC: ATCC 33592 / MRSA, read-out: MIC values MRSA. As for the experimental part: as §1, §2, §3, §4, §5, §6, §7, §8, §9, §10, §11, §12, §13
Test [3] relates to Candida albicans ATCC 10231. As for the experimental part: as §1, §2, §3, §4, §5, §6, §7, §8, §9, §10, §11, §12, §13
In test [4] the test system is Aspergillus fumigatus ATCC 9197. The note with it: ATCC9197, read-out: MIC values A.f. The procedure:
as §1, §2, §3, §4, §5, §6, §7, §8, §9, §10, §11, §12, §13

Test [5] has as its system Aspergillus niger ATCC 16404. The note with it: ATCC16404, read-out: MIC values A.n. As for the experimental part: as §1, §2, §3, §4, §5, §6, §7, §8, §9, §10, §11, §12, §13
For test [6], the system named is Enterococcus hirae ATCC 10541. Conditions: ATCC10541, read-out: MIC values E.h. As for the experimental part:
as §1, §2, §3, §4, §5, §6, §7, §8, §9, §10, §11, §12, §13

The subject of test [7] is Staphylococcus epidermidis ATCC 12228. The note with it: ATCC12228, Staphylococcus epidermis, read-out: MIC values S.e. The procedure:
as §1, §2, §3, §4, §5, §6, §7, §8, §9, §10, §11, §12, §13

In the next test the test system is Escherichia coli. Conditions: read-out: MIC values E.c. As for the experimental part:
as §1, §2, §4, §5, §6, §7, §8
as §9, with “Subsequently, 5 μL of the inocula are pipetted in the test wells using an eight-channel pipette. In one test at least two, maximum four rows are inoculated with the same substance and the same germs. The concentrations of the test substance are each 128 μg/mL to 2 μg/mL.” left out
(§14) The prepared plates are converted to a microtiter plate reader (Anthos ht111) which is connected to a printer. In this device, the plates are shaken for 60 seconds with high frequency before each measurement and the absorption of the probes is measured at the wavelength of light of 590 nm. […]
(§15) Following this the micro titer plates are measured again as described above. […]

The subject of another test is Pseudomonas aeroginosa. Conditions: read-out: MIC values P.a. The procedure: as §1, §2, §4, §5, §6, §7, §8
as §9, with “Subsequently, 5 μL of the inocula are pipetted in the test wells using an eight-channel pipette. In one test at least two, maximum four rows are inoculated with the same substance and the same germs. The concentrations of the test substance are each 128 μg/mL to 2 μg/mL.” left out
as §14, §15

The mark [8] stands for this setting: ATCC6538, number of tests in brackets, rounded average of logarithmic endpoints, read-out: MIC values S.a.
Setting [9] is: methicillin-resistant Staphylococcus aureus, number of tests in brackets.

Turning to `Cl.O=C(CCCN1CCN(c2ccccc2)CC1)c1ccc(-c2ccc(Br)cc2)cc1` [4′-(4-bromophenyl)-4-(N-phenylpiperazino)butyrophenone-hydrochloride, reference compound], the “MIC value / growth inhibition of Staphylococcus aureus (result in words)” value in test [1] (also after addition of higher concentrations) was “did not inhibit the growth”.

A word on the MIC: it is the least concentration at which growth counts as inhibited. As for `CN[C@H](CC(C)C)C(=O)N[C@H]1C(=O)N[C@@H](CC(N)=O)C(=O)N[C@H]2C(=O)N[C@H]3C(=O)N[C@H](C(=O)N[C@H](C(=O)O)c4cc(O)cc(O)c4-c4cc3ccc4O)[C@H](O)c3ccc(c(Cl)c3)Oc3cc2cc(c3O[C@@H]2O[C@H](CO)[C@@H](O)[C@H](O)[C@H]2O[C@H]2C[C@](C)(N)[C@H](O)[C@H](C)O2)Oc2ccc(cc2Cl)[C@H]1O` [Vancomycin, reference compound], the minimum inhibitory concentration (MIC) in [2] (Staphylococcus aureus) is less than 2 mg/L.

As for `CN(C)CCCCc1ccc(-c2ccc(Br)cc2)cc1` [GG28, 4-bromo-4′-(4-dimethylaminobutyl) biphenyl hydrochloride], the MIC in [3] (ATCC10231, read-out: MIC values C.a. (Yeast)) turned out to be 8 mg/L; in [1] (ATCC6538, read-out: MIC values S.a.) it was 13 mg/L; in [2] (Staphylococcus aureus), 18 mg/L.

As to `CN(C)CCCC(=O)c1ccc(-c2ccc(Br)cc2)cc1.Cl` [GG20-4, 4′-(4-bromophenyl)-4-dimethylaminobutyrophenone-hydrochloride], the MIC in test [4] is 8 mg/L; in test [5], 64 mg/L; in [6], 16 mg/L; in test [1] (setting [8]) it was 4 to 8 mg/L; in [7], 4 mg/L; in test [2] (setting [9]), 8 mg/L. Moreover, the MIC in the test with Escherichia coli and in the test on Pseudomonas aeroginosa was more than 64 mg/L in each case.

As for `CN(C)CCCCC(=O)c1ccc(-c2ccc(Br)cc2)cc1.Cl` [GG20-5], the MIC stood at 8 mg/L in test [3] (ATCC10231, Candida albicans, number of tests in brackets, read-out: MIC values C.a. (Yeast)); 16 mg/L in test [1] (setting [8]); 16 mg/L in test [2] (setting [9]).

As to `CN(C)CCC(=O)c1ccc(-c2ccc(Br)cc2)cc1.Cl` [GG20-3, reference compound], the MIC was 32 mg/L in [1] (setting [8]); 16 mg/L in [7]; 32 mg/L in [2] (setting [9]); more than 64 mg/L in the test on Escherichia coli; more than 64 mg/L in the test with Pseudomonas aeroginosa.

Turning to `CN(C)[C@@H]1C(=O)C(C(N)=O)=C(O)[C@@]2(O)C(=O)C3=C(O)c4c(O)cccc4[C@@](C)(O)[C@H]3C[C@@H]12` [Tetracyclin, reference compound], in test [2] (setting [9]), the “MIC values MRSA” value amounted to 64 mg/L (≈ 144 µM).
